Calls of active or inactive are those of the source. The calls are words filed in the database; no cut-off is given here.
How the values were obtained:
Trypanosoma cruzi [1] = assay: Trypanocidal activity against extracellular trypomastigote form of Trypanosoma cruzi IRHOD/CO/2008/SN3 after 24 hrs by Neubauer hemocytometric analysis; type: functional, organism-based; details: IRHOD/CO/2008/SN3, 24 h
Trypanosoma cruzi [2] = assay: Trypanocidal activity against intracellular amastigote form of Trypanosoma cruzi IRHOD/CO/2008/SN3 infected in African green monkey Vero cells after 72 hrs by Giemsa staining assay; type: functional, organism-based; details: IRHOD/CO/2008/SN3, Vero
Trypanosoma cruzi [3] = assay: Trypanocidal activity against extracellular epimastigote form of Trypanosoma cruzi IRHOD/CO/2008/SN3 after 72 hrs by Neubauer hemocytometric analysis; type: functional, organism-based; details: IRHOD/CO/2008/SN3, 72 h
[4] = Selectivity index, ratio of IC50 for African green monkey Vero cells to IC50 for extracellular trypomastigote form of Trypanosoma cruzi IRHOD/CO/2008/SN3; type: toxicity, cell-based; details: read-out: Ratio IC50
[5] = Selectivity index, ratio of IC50 for African green monkey Vero cells to IC50 for intracellular amastigote form of Trypanosoma cruzi IRHOD/CO/2008/SN3; type: toxicity, cell-based; details: read-out: Ratio IC50
[6] = Selectivity index, ratio of IC50 for African green monkey Vero cells to IC50 for extracellular epimastigote form of Trypanosoma cruzi IRHOD/CO/2008/SN3; type: toxicity, cell-based; details: read-out: Ratio IC50
Vero = assay: Cytotoxicity against African green monkey Vero cells after 72 hrs by flow cytometric analysis; type: cell-based; details: Chlorocebus sabaeus
Trypanosoma cruzi [7] = assay: Trypanocidal activity against epimastigote form of Trypanosoma cruzi IRHOD/CO/2008/SN3 assessed as induction of ethanol production at IC25 after 96 hrs by NMR spectra analysis; type: functional, organism-based
Trypanosoma cruzi [8] = assay: Trypanocidal activity against epimastigote form of Trypanosoma cruzi IRHOD/CO/2008/SN3 assessed as inhibition of acetate excretion at IC25 after 96 hrs by NMR spectra analysis; type: functional, organism-based
Trypanosoma cruzi [9] = assay: Trypanocidal activity against epimastigote form of Trypanosoma cruzi IRHOD/CO/2008/SN3 assessed as inhibition of succinate excretion at IC25 after 96 hrs by NMR spectra analysis; type: functional, organism-based
[10] = Inhibition of Escherichia coli Mn-SOD assessed as reduction of nitrobluetetrazolium measured for 10 mins by spectrophotometric analysis
[11] = Inhibition of Fe-SOD in Trypanosoma cruzi IRHOD/CO/2008/SN3 epimastigotes assessed as reduction of nitrobluetetrazolium measured for 10 mins by spectrophotometric analysis
Trypanosoma cruzi [12] = assay: Inhibition of Fe-SOD in Trypanosoma cruzi IRHOD/CO/2008/SN3 epimastigotes assessed as reduction of nitrobluetetrazolium at 12.5 to 25 uM measured for 10 mins by spectrophotometric analysis relative to control
Trypanosoma cruzi [13] = assay: Trypanocidal activity against epimastigote form of Trypanosoma cruzi IRHOD/CO/2008/SN3 assessed as appearance of swollen mitochondria at IC25 after 96 hrs by transmission electron microscopic analysis; type: functional, organism-based
Trypanosoma cruzi [14] = assay: Trypanocidal activity against epimastigote form of Trypanosoma cruzi IRHOD/CO/2008/SN3 assessed as disorganization of cytoplasm at IC25 after 96 hrs by transmission electron microscopic analysis; type: functional, organism-based
Trypanosoma cruzi [15] = assay: Trypanocidal activity against bloodstream trypomastigote form of Trypanosoma cruzi IRHOD/CO/2008/SN3 infected in BALB/c mouse assessed as reduction of anti-parasitic Ig-G level in serum at 5 mg/kg/day, ip administered for 5 days measured over 40 to 120 days post-infection by ELISA; type: functional, organism-based
Trypanosoma cruzi [16] = assay: Trypanocidal activity against bloodstream trypomastigote form of Trypanosoma cruzi IRHOD/CO/2008/SN3 infected in BALB/c mouse assessed as reduction of circulating parasite burden at 5 mg/kg, ip administered for 5 to 10 days measured 22 to 60 days post-infection by Neubauer hemocytometric analysis; type: functional, organism-based; parameters: dose 5 mg/kg
Trypanosoma cruzi [17] = assay: Trypanocidal activity against trypomastigote form of Trypanosoma cruzi IRHOD/CO/2008/SN3 infected in African green monkey Vero cells assessed as inhibition of trypomastigotes released in culture medium at IC25 relative to control; type: functional
Trypanosoma cruzi [18] = assay: Trypanocidal activity against amastigote form of Trypanosoma cruzi IRHOD/CO/2008/SN3 infected in African green monkey Vero cells assessed as inhibition of amastigotes load per cell at IC25 preincubated for 12 hrs followed by compound washout measured after 10 days by Giemsa staining-based microscopic analysis relative to control; type: functional
Trypanosoma cruzi [19] = assay: Trypanocidal activity against amastigote form of Trypanosoma cruzi IRHOD/CO/2008/SN3 infected in African green monkey Vero cells assessed as inhibition of parasite infection rate at IC25 preincubated for 12 hrs followed by compound washout measured after 10 days by Giemsa staining-based microscopic analysis relative to control; type: functional
Trypanosoma cruzi [20] = assay: Trypanocidal activity against epimastigote form of Trypanosoma cruzi IRHOD/CO/2008/SN3 assessed as inhibition of lactate excretion at IC25 after 96 hrs by NMR spectra analysis; type: functional, organism-based
Trypanosoma cruzi [21] = assay: Trypanocidal activity against epimastigote form of Trypanosoma cruzi IRHOD/CO/2008/SN3 assessed as inhibition of alanine excretion at IC25 after 96 hrs by NMR spectra analysis; type: functional, organism-based
Trypanosoma cruzi [22] = assay: Trypanocidal activity against epimastigote form of Trypanosoma cruzi IRHOD/CO/2008/SN3 assessed as loss of plasma membrane integrity at IC25 after 96 hrs by transmission electron microscopic analysis; type: functional, organism-based
Trypanosoma cruzi [23] = assay: Trypanocidal activity against epimastigote form of Trypanosoma cruzi IRHOD/CO/2008/SN3 assessed as excessive dilation of kinetoplast at IC25 after 96 hrs by transmission electron microscopic analysis; type: functional, organism-based
Trypanosoma cruzi [24] = assay: Trypanocidal activity against epimastigote form of Trypanosoma cruzi IRHOD/CO/2008/SN3 assessed as cytoplasmic vacuolization and disintegration at IC25 after 96 hrs by transmission electron microscopic analysis; type: functional, organism-based
Trypanosoma cruzi [25] = assay: Trypanocidal activity against epimastigote form of Trypanosoma cruzi IRHOD/CO/2008/SN3 assessed as lysis of epimastigotes at IC25 after 96 hrs by transmission electron microscopic analysis; type: functional, organism-based
Mus musculus [26] = assay: Hepatotoxicity in BALB/c mouse infected with bloodstream trypomastigote form of Trypanosoma cruzi IRHOD/CO/2008/SN3 assessed as presence of necrotic cells in portal space at 5 mg/kg/day, ip administered for 5 days measured 150 days post-infection by light microscopic analysis; type: toxicity, organism-based; parameters: route intraperitoneal; details: in vivo, 3600 h
Mus musculus [27] = assay: Hepatotoxicity in BALB/c mouse infected with bloodstream trypomastigote form of Trypanosoma cruzi IRHOD/CO/2008/SN3 assessed as hepatic destruction in portal space at 5 mg/kg/day, ip administered for 5 days measured 150 days post-infection by light microscopic analysis; type: toxicity, organism-based; parameters: route intraperitoneal; details: in vivo, 3600 h
Mus musculus [28] = assay: Hepatotoxicity in BALB/c mouse infected with bloodstream trypomastigote form of Trypanosoma cruzi IRHOD/CO/2008/SN3 assessed as centrilobular destruction of hepatic vein at 5 mg/kg/day, ip administered for 5 days measured 150 days post-infection by light microscopic analysis; type: toxicity, organism-based; parameters: route intraperitoneal; details: in vivo, 3600 h
Mus musculus [29] = assay: Hepatotoxicity in BALB/c mouse infected with bloodstream trypomastigote form of Trypanosoma cruzi IRHOD/CO/2008/SN3 assessed as lymphocytic infiltration in portal tracts at 5 mg/kg/day, ip administered for 5 days measured 150 days post-infection by light microscopic analysis; type: toxicity, organism-based; parameters: route intraperitoneal; details: in vivo, 3600 h
Mus musculus [30] = assay: Hepatotoxicity in BALB/c mouse infected with bloodstream trypomastigote form of Trypanosoma cruzi IRHOD/CO/2008/SN3 assessed as vessels with thickened walls at 5 mg/kg/day, ip administered for 5 days measured 150 days post-infection by light microscopic analysis; type: toxicity, organism-based; parameters: route intraperitoneal; details: in vivo
Mus musculus [31] = assay: Hepatotoxicity in BALB/c mouse infected with bloodstream trypomastigote form of Trypanosoma cruzi IRHOD/CO/2008/SN3 assessed as delocalized hepatic destruction at 5 mg/kg/day, ip administered for 5 days measured 150 days post-infection by light microscopic analysis; type: toxicity, organism-based; parameters: route intraperitoneal; details: in vivo, 3600 h
Mus musculus [32] = assay: Hepatotoxicity in BALB/c mouse infected with bloodstream trypomastigote form of Trypanosoma cruzi IRHOD/CO/2008/SN3 assessed as granuloma with lymphocytic infiltrate at 5 mg/kg/day, ip administered for 5 days measured 150 days post-infection by light microscopic analysis; type: toxicity, organism-based; parameters: route intraperitoneal; details: in vivo, 3600 h
Mus musculus [33] = assay: Hepatotoxicity in BALB/c mouse infected with bloodstream trypomastigote form of Trypanosoma cruzi IRHOD/CO/2008/SN3 assessed as interstitial hemorrhage at 5 mg/kg/day, ip administered for 5 days measured 150 days post-infection by light microscopic analysis; type: toxicity, organism-based; parameters: route intraperitoneal; details: in vivo, 3600 h

Structure (SMILES) | IC50 (Trypanosoma cruzi [1]) [µM] | IC50 (Trypanosoma cruzi [2]) [µM] | IC50 (Trypanosoma cruzi [3]) [µM] | selectivity ratio [4] | selectivity ratio [5] | selectivity ratio [6] | IC50 (Vero) [µM] | Activity (Trypanosoma cruzi [7]) | inhibition (Trypanosoma cruzi [8]) | inhibition (Trypanosoma cruzi [9]) | IC50 [10] [µM] | IC50 [11] [µM] | inhibition (Trypanosoma cruzi [12]) [%] | Activity (Trypanosoma cruzi [15]) | Activity (Trypanosoma cruzi [16]) | inhibition (INH) (Trypanosoma cruzi [17]) [%] | inhibition (INH) (Trypanosoma cruzi [18]) [%] | inhibition (INH) (Trypanosoma cruzi [19]) [%] | inhibition (Trypanosoma cruzi [20]) | inhibition (Trypanosoma cruzi [21]) | further results
NCCCNCCN1CCNCc2cccc(n2)CNCC1 | 27.6 | 20 | 21 | 6.1 | 8.3 | 8 | 167 | – | – | – | – | – | – | – | – | – | – | – | – | – | –
c1cc2nc(c1)CNCCN(CCNCc1cccc3ccccc13)CCNC2 | 19.5 | 16.1 | 10 | 16.7 | 20.2 | 31.2 | 325 | – | – | – | – | – | – | – | – | – | – | – | – | – | –
Cl.c1ccc(CNCCN2CCNCc3cccc(n3)CNCC2)nc1 | 18 | 10 | 9 | 20.3 | 36.4 | 42.2 | 366 | Active | Active | Active | 62.5 | 8.2 | 100 | Active | Active | 82 | 60 | 77 | Active | Active | Activity (Trypanosoma cruzi [13]): Active; Activity (Trypanosoma cruzi [14]): Active
Br.NCCN1CCNCc2cccc(n2)CNCC1 | 16.3 | 7.8 | 6.5 | 16.5 | 34.5 | 41.4 | 270 | Active | Active | Active | 111 | 12.5 | 100 | Active | Active | 58 | 46 | 73 | Active | Active | Activity (Trypanosoma cruzi [22]): Active; Activity (Trypanosoma cruzi [23]): Active; Activity (Trypanosoma cruzi [24]): Active; Activity (Trypanosoma cruzi [25]): Active
O=C(Cn1ccnc1[N+](=O)[O-])NCc1ccccc1 [BENZNIDAZOLE] | 22.6 | 23 | – | – | – | – | – | – | – | – | – | – | – | Active | Active | 27 | 12 | 39 | – | – | Activity (Mus musculus [26]): Toxic; Activity (Mus musculus [27]): Toxic; Activity (Mus musculus [28]): Non-toxic; Activity (Mus musculus [29]): Non-toxic; Activity (Mus musculus [30]): Non-toxic; Activity (Mus musculus [31]): Toxic; Activity (Mus musculus [32]): Toxic; Activity (Mus musculus [33]): Non-toxic
